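Each compound was tested at five concentrations against cells in 96-well plates for 48 hours. GI50 is the concentration that inhibits growth by half.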 The source made the active and inactive calls. Cut-off read from the data, not from the text of the source: active = GI50 up to about 1.1 µM and inactive = higher.
Assays:
Assay in all cases: DTP human tumour cell line panel, 48 h
[1] = system: LXFL 529
[2] = system: SNB-78
[3] = system: DMS-114
[4] = system: DLD-1
[5] = system: DMS-273
[6] = system: KM-20L2
[7] = system: XF498
[8] = system: RXF 631
[9] = system: BT-549

Compound | GI50 [1] | GI50 [2] | GI50 [3] | GI50 [4] | GI50 [5] | GI50 [6] | GI50 [7] | GI50 [8] | GI50 [9]
COc1cccc(C=O)c1[O-].COc1cccc(C=O)c1[O-].[Zn+2] | 45.3 µM (inactive) | > 100 µM (inactive) | 51.6 µM (inactive) | 47 µM (inactive) | 60.5 µM (inactive) | > 100 µM (inactive) | – | – | –
O=C1NC(O)n2c(=O)[nH]c(=O)n21 (stereo not given) | > 100 µM (inactive) | > 100 µM (inactive) | – | > 100 µM (inactive) | > 100 µM (inactive) | > 100 µM (inactive) | > 100 µM (inactive) | > 100 µM (inactive) | –
N#CC1C[C@@H]2CC3(CCC2CN1C(=O)c1ccccc1)OCCO3 (stereo not given in full) | > 100 µM (inactive) | > 100 µM (inactive) | > 100 µM (inactive) | > 100 µM (inactive) | > 100 µM (inactive) | > 100 µM (inactive) | > 100 µM (inactive) | – | –
COc1ccccc1C1c2cc3c(cc2OC(O)(CO)C1C(=O)O)OCO3.COc1ccccc1C1c2cc3c(cc2OC2(O)COC(=O)C12)OCO3 (stereo not given) | > 100 µM (inactive) | > 100 µM (inactive) | > 100 µM (inactive) | > 100 µM (inactive) | > 100 µM (inactive) | > 100 µM (inactive) | – | – | –
O=c1cc(-c2ccccc2)[nH]c2c(F)ccc(F)c12 | 68.5 µM (inactive) | – | 28.7 µM (inactive) | > 100 µM (inactive) | 24.3 µM (inactive) | – | – | – | –
CCOC1C(Br)Cn2c(=O)c3cc4ccccc4cc3c(=O)n2C1C (stereo not given) | 35.8 µM (inactive) | > 100 µM (inactive) | 44.8 µM (inactive) | 54.3 µM (inactive) | 40.6 µM (inactive) | 68.9 µM (inactive) | 31 µM (inactive) | – | –
O=C1CCCCC1C1(O)C(=O)Nc2cc(F)ccc21 (stereo not given) | > 100 µM (inactive) | > 100 µM (inactive) | > 100 µM (inactive) | > 100 µM (inactive) | > 100 µM (inactive) | > 100 µM (inactive) | > 100 µM (inactive) | – | –
NC1=NNC(=O)c2nnc3c(C(=O)O)cnn3c2S1 | > 100 µM (inactive) | – | > 100 µM (inactive) | > 100 µM (inactive) | – | > 100 µM (inactive) | – | – | –
COc1ccc(NC(=O)CC(=O)N2N=C(N(CCC#N)c3cccc(C)c3)CC2c2ccccc2)cc1 (stereo not given) | > 100 µM (inactive) | > 100 µM (inactive) | – | > 100 µM (inactive) | > 100 µM (inactive) | > 100 µM (inactive) | – | – | –
CC(=O)Nc1ccc(/C=C2\N=C(c3ccccc3)OC2=O)cc1 | > 100 µM (inactive) | – | 1 µM (active) | > 100 µM (inactive) | – | > 100 µM (inactive) | – | – | –
Cc1cc(N(CCC#N)CCC#N)ccc1/C=C1N=C(/C=C\c2ccccc2)N(c2ccc(Cl)cc2)C\1=O | – | > 100 µM (inactive) | 2.13 µM (inactive) | – | 0.288 µM (active) | – | > 100 µM (inactive) | – | 1.49 µM (inactive)
Cc1ccc(-c2c(-c3ccccc3)[nH]c(C)c2C(=O)ONC(=O)c2ccccc2)cc1 | – | – | – | – | – | – | – | – | 3.52 µM (inactive)
COc1ccc(C(=O)C(c2ccc(OC)cc2)C2(O)C(=O)Nc3ccc([N+](=O)[O-])cc32)cc1 (stereo not given) | > 100 µM (inactive) | > 100 µM (inactive) | 48.8 µM (inactive) | > 100 µM (inactive) | > 100 µM (inactive) | > 100 µM (inactive) | – | – | –
CCOC(=O)/C=C/c1ccccn1 | > 100 µM (inactive) | > 100 µM (inactive) | > 100 µM (inactive) | > 100 µM (inactive) | – | – | > 100 µM (inactive) | > 100 µM (inactive) | –
COC1=C2C[C@](OC)(C#CC=CC#CC2O)CC1(C)C (stereo not given in full) | – | – | – | – | – | – | – | – | > 100 µM (inactive)
Clc1ccc(C2=NOC(C3CCCCC3)C2)cc1 (stereo not given) | > 100 µM (inactive) | > 100 µM (inactive) | > 100 µM (inactive) | > 100 µM (inactive) | > 100 µM (inactive) | – | – | – | –

Compound | GI50 [1] | GI50 [2] | GI50 [3] | GI50 [4] | GI50 [5] | GI50 [6] | GI50 [7] | GI50 [8] | GI50 [9]
CCOc1cc2c(cnc3c4cc(OC)c(OC)cc4ccc23)cc1OC | > 100 µM (inactive) | – | > 100 µM (inactive) | > 100 µM (inactive) | – | > 100 µM (inactive) | > 100 µM (inactive) | – | –
O=C(CP(=O)(O)O)c1cccs1 | > 100 µM (inactive) | > 100 µM (inactive) | > 100 µM (inactive) | > 100 µM (inactive) | > 100 µM (inactive) | > 100 µM (inactive) | – | – | –
CC(=O)OCC(OC(C)=O)C(OC(C)=O)C(OC(C)=O)C(=O)CNn1c(-c2ccccc2)nc2ccc(Br)cc2c1=O (stereo not given) | > 100 µM (inactive) | > 100 µM (inactive) | > 100 µM (inactive) | – | > 100 µM (inactive) | > 100 µM (inactive) | 21.2 µM (inactive) | – | –
O=[N+]([O-])C(C(Cl)=C(Cl)Cl)=C(N(Cc1ccccc1)Cc1ccccc1)N(Cc1ccccc1)Cc1ccccc1 | – | – | – | – | – | – | – | – | > 100 µM (inactive)
CCCC(=O)CC(C)C(=O)C(=O)NC12CC3CC(CC(C3)C1)C2 (stereo not given) | – | > 100 µM (inactive) | – | > 100 µM (inactive) | > 100 µM (inactive) | > 100 µM (inactive) | > 100 µM (inactive) | – | –
CC(=O)N(N=O)c1ccc(N(N=O)C(C)=O)cc1 | > 100 µM (inactive) | > 100 µM (inactive) | > 100 µM (inactive) | > 100 µM (inactive) | > 100 µM (inactive) | > 100 µM (inactive) | – | – | –
O=C1CCSC2=C1SCc1sccc12 | > 100 µM (inactive) | > 100 µM (inactive) | > 100 µM (inactive) | > 100 µM (inactive) | – | > 100 µM (inactive) | > 100 µM (inactive) | – | –
O=C1CCCc2c(O)ccc(O)c21 | 44 µM (inactive) | > 100 µM (inactive) | 19.9 µM (inactive) | > 100 µM (inactive) | > 100 µM (inactive) | > 100 µM (inactive) | – | – | –
COC(=O)c1c2c(c(-c3ccccc3)c3c1-c1nc(Cl)ccc1CC3)CCc1ccc(Cl)nc1-2 | > 100 µM (inactive) | 37.9 µM (inactive) | – | > 100 µM (inactive) | – | > 100 µM (inactive) | – | > 100 µM (inactive) | –
O=c1c2ccccc2nc2n1C(c1ccc([N+](=O)[O-])cc1)C2(c1ccccc1)c1ccccc1 (stereo not given) | – | – | – | – | – | – | – | – | > 100 µM (inactive)
COc1ccc(C(=O)/C=C/c2ccc(OCC(=N)N)cc2)cc1 | – | – | – | – | – | – | – | – | 17.9 µM (inactive)
O=C(NCCCCCCCCCCCCNC(=O)c1cnc2ccccc2n1)c1cnc2ccccc2n1 | 33.7 µM (inactive) | 76.9 µM (inactive) | 27.8 µM (inactive) | > 100 µM (inactive) | 64.6 µM (inactive) | > 100 µM (inactive) | – | 99.5 µM (inactive) | –
COc1cc2cc3c4c(cc(OC)c(OC)c4c2cc1OC)CCN3C(=O)OCCN1CCNCC1 | 15.1 µM (inactive) | 16 µM (inactive) | – | 15.2 µM (inactive) | 13.5 µM (inactive) | 11.8 µM (inactive) | 15.3 µM (inactive) | – | –
O=C1CC(S(=O)(=O)O)C=C1Nc1cccc(Cl)c1 (stereo not given) | > 100 µM (inactive) | > 100 µM (inactive) | – | > 100 µM (inactive) | > 100 µM (inactive) | > 100 µM (inactive) | > 100 µM (inactive) | – | –
CN(N=O)C(=O)ON1C(=O)CCC1=O | > 100 µM (inactive) | > 100 µM (inactive) | > 100 µM (inactive) | > 100 µM (inactive) | > 100 µM (inactive) | > 100 µM (inactive) | – | – | –
C[C@H]1O[C@@H](O[C@H]2[C@@H](O)C[C@H](O[C@H]3[C@@H](O)C[C@H](O[C@H]4CC[C@@]5(C)[C@H](CC[C@@H]6[C@@H]5CC[C@]5(C)[C@@H](C7=CC(=O)OC7)[C@@H](O)C[C@]65O)C4)O[C@@H]3C)O[C@@H]2C)C[C@H](O)[C@@H]1O [GITOXIN] | – | – | – | – | – | – | – | – | 0.116 µM (active)

Source: ChEMBL document CHEMBL1201862, “PubChem BioAssay data set” (2004)
